Measured values from US10047063B2, “Method for improving the oxygen-releasing ability of hemoglobin to organs or peripheral tissues in human bodies and a medication thereof” (NATIONAL SUN YAT-SEN UNIVERSITY, priority 2014, dated 2018).

How the values were obtained:
Assay type in all cases: biochemical
[1] = target: T1, hemoglobin (Homo sapiens, UniProt P68871+P69905); assay: Resonance Raman spectroscopy: percentage of high oxygen affinity "R" state of oxygenated hemoglobin treated with compounds; settings: varying mole ratio to Hb tetramer, 532 nm excitation, oxygen atmosphere
Source text: In order to evaluate the effect of the compound of Formula I on stabilizing the oxygenated hemoglobin in the low oxygen affinity “T” state, compounds including 2,3-bisphosphoglycerate (group A0), Z-butylidenephthalide (group A1), Z-ligustilide (group A2), senkyunolide A (group A3), senkyunolide H (group A4) and senkyunolide I (group A5) are mixed with hemoglobin as a function of their mole ratio to hemoglobin, followed by the resonance Raman spectroscopy measurements at 532 nm excitation wavelength under the oxygen atmosphere. The percentages of the high oxygen affinity “R” state for hemoglobin treated with 2,3-bisphosphoglycerate (shown in FIG. 2a, as reference) and various phthalide phyto-compounds (shown in FIGS. 2b to 2f) are analyzed from the resonance Raman spectroscopy measurements. In more specific, the percentage of high oxygen affinity “R” state for each treated hemoglobin was obtained by fitting a simulated spectrum comprised of adjustable weighing factors of the T and R states of pure hemoglobin to the obtained resonance Raman spectrum of treated hemoglobin. […]

[2] = target: fetal hemoglobin (α2γ2, HbF) (Homo sapiens, UniProt P69905); assay: Resonance Raman spectroscopy: percentage of "R" state of oxygenated fetal hemoglobin treated with compounds; settings: oxygen atmosphere
Source text: In order to evaluate the effect of the compound of phthalides on stabilizing the oxygenated hemoglobin variants in the low oxygen affinity “T” state, compounds including 2,3-bisphosphoglycerate (group A0), Z-butylidenephthalide (group A1), Z-ligustilide (group A2), senkyunolide A (group A3), senkyunolide H (group A4) and senkyunolide I (group A5) are mixed with fetal hemoglobin (α2γ2, HbF) as a representative hemoglobin variant which is also a potential hemoglobin-based blood substitute, followed by the resonance Raman spectroscopy measurements under the oxygen atmosphere. The percentages of the high oxygen affinity “R” state of fetal hemoglobin treated with 2,3-bisphosphoglycerate (shown in FIG. 3a) and various phthalide phyto-compounds (shown in FIGS. 3b to 3f) are also analyzed from the resonance Raman spectroscopy measurements, following the same spectral analysis procedures as that of normal hemoglobin.

[3] = target: T1, hemoglobin; assay: Oxygen equilibrium curve (OEC) measurement, P50 of treated hemoglobin
Source text: FIG. 4a is a diagram illustrating the oxygen equilibrium curve (OEC) of hemoglobin treated with 2,3-bisphosphoglycerate with a molar ratio to Hb of 1.0 (dash black curve). The OEC of pure hemoglobin (solid black curve) is also shown as the reference. The P50 value derived from the OEC for pure hemoglobin and for Hb treated with 2,3-bisphosphoglycerate are 12.6 and 16.4±1 mmHg, respectively.
To evaluate the effect of the compound of phthalides on reducing the oxygen affinity and thus promoting the oxygen release, the oxygen equilibrium curves (OEC) for hemoglobin treated with 2,3-bisphosphoglycerate (solid black curve in FIG. 4a) and Z-butylidenephthalide (Z-butylidenephthalide-to-Hb molar ratio of: 0.2, solid black curve; 0.5, dash-dot black curve; 0.8, dot black curve in FIG. 4b), are measured in comparison with that of pure hemoglobin (dash black curves in FIGS. 4a and 4b).
From the oxygen equilibrium measurements, the P50 values of hemoglobin treated compounds, including Z-butylidenephthalide, Z-ligustilide and senkyunolide A are obtained, as shown in FIGS. 5a to 5c. P50, defined as the oxygen partial pressure required for 50% of Hb to become oxygenated or deoxygenated, is a direct measure of oxygen affinity for hemoglobin, which increases with decreasing oxygen affinity.

[4] = effector-to-Hb mole ratio of 0.8 (Level II), pure hemoglobin 12.6±1

T1 sequence (P69905 2-142 limits assumed): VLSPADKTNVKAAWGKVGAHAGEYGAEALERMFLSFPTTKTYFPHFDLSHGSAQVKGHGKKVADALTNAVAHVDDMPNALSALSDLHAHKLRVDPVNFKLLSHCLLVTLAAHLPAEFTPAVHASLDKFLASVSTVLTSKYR
T1 sequence (P68871 2-147 limits assumed): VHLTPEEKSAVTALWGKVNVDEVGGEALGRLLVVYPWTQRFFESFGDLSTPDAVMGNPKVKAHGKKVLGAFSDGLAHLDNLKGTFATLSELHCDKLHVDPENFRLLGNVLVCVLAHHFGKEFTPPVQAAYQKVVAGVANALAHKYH
Sequence of fetal hemoglobin (α2γ2, HbF) (P69905 2-142 limits assumed): as the sequence (P69905 2-142 limits assumed) above
Sequence of fetal hemoglobin (α2γ2, HbF) (P69892 2-147 partner limits assumed): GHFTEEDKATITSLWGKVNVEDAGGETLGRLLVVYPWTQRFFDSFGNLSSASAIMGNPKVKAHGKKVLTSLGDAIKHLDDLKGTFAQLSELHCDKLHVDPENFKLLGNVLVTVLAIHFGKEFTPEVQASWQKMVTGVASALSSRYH

SMILES | "R" state suppression efficiency [1] | effect on relative ratio of high oxygen affinity "R" state of fetal hemoglobin [2] | P50 of hemoglobin treated with compound ([3]; molar ratio to Hb of 1.0, pure hemoglobin 12.6) [mmHg] | P50 of hemoglobin treated with compound [3, 4] [mmHg]
O=C(O)C(COP(=O)(O)O)OP(=O)(O)O (centres unmarked) [2,3-bisphosphoglycerate, reference compound] | about 20% | no effect | 16.4±1 | –
CCC/C=C1\OC(=O)c2ccccc21 [Z-butylidenephthalide] | – | can stabilize the low oxygen affinity “T” state | – | 17.4
CCC/C=C1\OC(=O)C2=C1CCC=C2 [Z-ligustilide] | – | can stabilize the low oxygen affinity “T” state | – | 15.9
CCCC[C@@H]1OC(=O)C2=C1CCC=C2 [senkyunolide A] | – | can stabilize the low oxygen affinity “T” state | – | –
CCC/C=C1\OC(=O)C2=C1CC[C@@H](O)[C@H]2O [senkyunolide H] | – | can stabilize the low oxygen affinity “T” state | – | –
CCC/C=C1\OC(=O)C2=C1CC[C@@H](O)[C@@H]2O [senkyunolide I] | – | can stabilize the low oxygen affinity “T” state | – | 15.2±1
